Patent publication US7084158B2, “Substituted propargylamines” (Bayer Cropscience S.A., priority 2001, dated 2006)

Legend:
Format in all cases: in vivo
Parameters in all cases: key: compounds were considered to be active when, at a concentration of 500 ppm or less, they had an activity on the harmful organisms of 50% or more
Heliothis virescens = experiment: Example B: tobacco budworm eggs on filter paper/insect diet, mortality; conditions: 500 ppm or less; 24-hour-old eggs dipped, diet treated; after 6 days
Aedes aegypti = experiment: Example AG: microtiter plate, yellow fever mosquito larvicidal activity; conditions: 500 ppm or less, after 3 days
[1] = test system: Diabrotica undecimpunctata; experiment: Example C: corn rootworm eggs with maize corn, mortality; conditions: 500 ppm or less; 4-5-day-old eggs; after 6 days

SMILES	effect on the eggs and hatched larvae (mortality) (Heliothis virescens)	larvicidal activity (Aedes aegypti)	effect on the eggs and hatched larvae (mortality) [1]
CC1CCN(CC#Cc2ccc(-c3ccc(C(F)(F)F)cc3)cc2)CC1 [Example 172]	active	–	–
CC1CCN(CC#Cc2ccc(F)c(Cl)c2)CC1 [Example 124]	active	–	–
Cc1c(Cl)cccc1C#CCN1CCC(C)CC1 [Example 97]	active	–	–
CC(=O)c1ccc(C#CCN2CCC(C)CC2)s1 [Example 214]	active	–	–
Cc1ccc(-c2ccc(C#CCN3CCC(C)CC3)s2)cc1 [Example 241]	active	–	–
CC1CCN(CC#Cc2ccc(-c3cc(F)cc([N+](=O)[O-])c3)cc2)CC1 [Example 177]	active	–	–
CC1CCN(CC#Cc2cc(Cl)c(OC(F)(F)C(F)Cl)c(Cl)c2)CC1 (centres unmarked) [Example 283]	active	–	–
CC1CCN(CC#Cc2ccc(-c3ccc(C(F)(F)F)cc3)s2)CC1 [Example 242]	–	active	–
CC1CCN(CC#Cc2ccc(-c3ccccc3)s2)CC1 [Example 240]	active	–	–
COc1ccc(-c2ccc(C#CCN3CCC(C)CC3)cc2)cc1 [Example 181]	active	–	–
CC1CCN(CC#Cc2c(Cl)cc(C(F)(F)F)cc2Cl)CC1 [Example 295]	active	–	active
CC1CCN(CC#Cc2cc(C(F)(F)F)cc(C(F)(F)F)c2)CC1C (centres unmarked) [Example 267]	–	active	active
Cc1cccc(-c2ccc(C#CCN3CCC(C)CC3)s2)c1 [Example 246]	active	–	–
CC1CCN(CC#Cc2ccc(-c3cccc(C(F)(F)F)c3)s2)CC1 [Example 229]	active	–	–
CC1CCN(CC#Cc2cccc(-c3cccc4ccccc34)c2)CC1 [Example 221]	active	–	–
CC1CCN(CC#Cc2ccc(-c3cc(Cl)cc(Cl)c3)s2)CC1 [Example 273]	active	–	–
Cc1cc(C)nc(C#CCN2CCC(C)CC2)c1 [Example 201]	active	–	active
CC1CCN(CC#Cc2ccc(-c3ccc(OC(F)(F)F)cc3)s2)CC1 [Example 244]	active	active	–
Cc1ccc(C#CCN2CCC(C)CC2)s1 [Example 293]	–	active	–
CC1CCN(CC#Cc2ccc(-c3cccc(Cl)c3)cc2)CC1 [Example 173]	active	–	–
CC1CCN(CC#Cc2cccc(C(F)(F)F)c2)CC1 [Example 24]	active	–	–
CC1CCN(CC#Cc2ccc(Cl)cc2Cl)CC1.Cl [Example 1000]	active	–	–

SMILES	effect on the eggs and hatched larvae (mortality) (Heliothis virescens)	larvicidal activity (Aedes aegypti)	effect on the eggs and hatched larvae (mortality) [1]
FC(F)(F)c1cc(C#CCN2CCCC(C(F)(F)F)C2)cc(C(F)(F)F)c1 (centres unmarked) [Example 281]	–	–	active
CC1CCN(CC#Cc2cccc(-c3ccc(Cl)s3)c2)CC1 [Example 225]	active	–	–
CC1CCN(CC#Cc2ccnc(C(F)(F)F)n2)CC1 [Example 167]	active	–	–
Cc1cc(C)nc(C#CCN2CCC(C)CC2)c1 [Example 294]	–	active	–
Cc1cc(Cl)ccc1C#CCN1CCC(C)CC1 [Example 100]	active	–	–
CC1CCN(CC#Cc2cc(C(F)(F)F)cc(C(F)(F)F)c2)CC1.O=C(O)/C=C\C(=O)O [Example 1056]	active	–	active
CC1CCN(CC#Cc2ccc(-c3cccc(Cl)c3)s2)CC1 [Example 247]	active	–	–
CC1CCN(CC#Cc2ccc(Cl)s2)CC1 [Example 216]	active	active	–
FC(F)(F)c1cc(C#CCN2CCC(C(F)(F)F)CC2)cc(C(F)(F)F)c1 [Example 205]	–	–	active
COc1ccc(-c2ccc(C#CCN3CCC(C)CC3)cc2F)cc1 [Example 231]	–	–	active
Cc1ccc(C#CCN2CCC(C)CC2)cc1C(F)(F)F [Example 284]	active	–	–
CC1CCN(CC#Cc2cccc(-c3ccc(Cl)cc3)c2)CC1 [Example 222]	active	–	–
CC1CCN(CC#Cc2ccc(-c3ccccc3Cl)cc2)CC1 [Example 174]	active	–	–
CCOC(=O)c1cccc(-c2ccc(C#CCN3CCC(C)CC3)cc2)c1 [Example 178]	active	–	–
CC1CCN(CC#Cc2cccc(-c3cccc(Cl)c3)c2)CC1 [Example 219]	–	active	–
CC1CCN(CC#Cc2ccc(-c3cc(C(F)(F)F)ccc3Cl)cc2)CC1 [Example 171]	active	–	–
CC1CCN(CC#Cc2ccc(-c3ccc(Cl)cc3Cl)cc2)CC1 [Example 176]	active	–	–
CCc1ccc(C#CCN2CCC(C)CC2)cc1F [Example 254]	active	active	–
CC1CCN(CC#Cc2cccc(-c3ccc(C#N)cc3)c2)CC1 [Example 226]	active	–	–
CC1CCN(CC#Cc2ccc(C#N)c(Cl)c2)CC1 [Example 289]	active	active	–
CC1CCN(CC#Cc2ccc(C=NOCc3ccc(Cl)cc3Cl)s2)CC1 [Example 296]	active	–	–
Cc1ccc(-c2sc(C#CCN3CCC(C)CC3)cc2C)cc1 [Example 236]	active	–	–

SMILES	effect on the eggs and hatched larvae (mortality) (Heliothis virescens)	larvicidal activity (Aedes aegypti)	effect on the eggs and hatched larvae (mortality) [1]
CC1(C)CCCN(CC#Cc2cc(C(F)(F)F)cc(C(F)(F)F)c2)C1.Cl [Example 1001]	–	–	active
CC1CCN(CC#Cc2ccc(-c3ccc(F)c(Cl)c3)c(F)c2)CC1 [Example 249]	–	active	–
CC1CCN(CC#Cc2cccc(-c3cc(C(F)(F)F)cc(C(F)(F)F)c3)c2)CC1 [Example 218]	–	active	–
Cc1ccc(-c2ccc(C#CCN3CCC(C)CC3)cc2F)cc1 [Example 248]	–	active	–
CC1CCN(CC#Cc2ccc(Br)c(F)c2)CC1 [Example 207]	active	–	active
FC(F)(F)c1cccc(C#CCN2CCCC(C(F)(F)F)C2)c1 (centres unmarked) [Example 297]	–	–	active
CC1CCN(CC#Cc2cccc(-c3cnc(Cl)c(Cl)c3)c2)CC1 [Example 224]	active	–	–
CC1CCN(CC#Cc2cc(Cl)cc(Cl)c2)CC1.Cl [Example 1011]	active	–	–
CC1CCN(CC#Cc2ccc(-c3ccccc3)cc2)CC1 [Example 119]	active	–	–
CC1CCCN(CC#Cc2cc(C(F)(F)F)cc(C(F)(F)F)c2)C1 (centres unmarked) [Example 31]	–	–	active
CC1CCN(CC#Cc2cccc(-c3ccc(C(F)(F)F)cc3)c2)CC1 [Example 217]	active	–	–
CC1CCN(CC#Cc2ccc(-c3cccc(C(F)(F)F)c3)cc2)CC1 [Example 182]	active	–	–
CC1CCN(CC#Cc2ccc(-c3cc(C(F)(F)F)cc(C(F)(F)F)c3)s2)CC1 [Example 271]	active	–	–
CC1CCN(CC#Cc2ccc(C=NOCc3ccccc3)s2)CC1 [Example 292]	active	active	–
CC1CCN(CC#Cc2ccc(F)c(C(F)(F)F)c2)CC1 [Example 285]	active	–	–
Cl.FC(F)(F)c1cc(C#CCN2CCC(C(F)(F)F)CC2)nc(C(F)(F)F)c1 [Example 1050]	–	–	active
Cc1cc(C#CCN2CCC(C)CC2)sc1Br [Example 213]	–	active	–
Cc1cc(C#CCN2CCC(C)CC2)sc1-c1ccc(Cl)cc1 [Example 239]	active	–	–
CC1CCN(CC#Cc2ccc(Br)s2)CC1 [Example 215]	active	active	–
CC1CCN(CC#Cc2ccc(C(F)(F)F)cn2)CC1 [Example 58]	–	–	active
FC(F)(F)c1cc(C#CCN2CCCC(C(F)(F)F)C2)nc(C(F)(F)F)c1 (centres unmarked) [Example 282]	–	–	active
Cc1cc(C#CCN2CCC(C)CC2)sc1-c1ccc(F)cc1 [Example 232]	active	–	–
